Measurements as given in patent publication US9956157B2, “Composition containing fucosterol for skin whitening or moisturizing” (INDUSTRY-ACADEMIC COOPERATION FOUNDATION, YONSEI UNIVERSITY, priority 2014, dated 2018).

Legend:
Assay type in all cases: cell-based
[1] = test system: MITF (microphthalmia transcription factor); assay: MITF mRNA expression (RT-PCR) in B16F10 melanoma cells; conditions: 200 nM α-MSH, fucosterol 5 and 20 μM, 24 hrs, FIG. 7
Procedure: B16F10 melanoma cells were incubated in a DMEM medium including 10% fetal bovine serum and then added in a 6-well plate with 2.5×10^5 cell/mL (the final volume of 3 mL). After being incubated for 24 hrs, the medium was removed and fucosterol which was dissolved in the DMEM medium including 200 nM α-MSH was treated at 5 and 20 μM of concentrations, respectively. After 24 hrs, the total RNA was isolated by using a TRIzol reagent (Invitrogen, Carlsbad, Calif., USA). The isolated total RNAs were quantified by using a nano-drop (ND-1000). The quantified RNA was synthesized to cDNA by using reverse transcriptase and a PCR machine (Applied biosystems, Foster city, CA, USA) and then the PCR was performed with specific primers below.
As the PCR result, the amplified cDNA was isolated with a 1.5% agarose gel by electrophoresis and cDNA bands were verified by using a G:BOX EF imaging system (Syngene, Cambridge, UK), and the result was illustrated in FIG. 7.

[2] = test system: loricrin; assay: Loricrin mRNA expression (RT-PCR) in HaCaT human keratinocytes; conditions: HaCaT cells, fucosterol 5, 10, 20 μM, 24 hrs, FIG. 9
Procedure: HaCaT human keratinocytes were incubated in a Dulbecco's Modified Eagle's Media (DMEM) medium including 10% fetal bovine serum and then put in a 6-well plate with 2×10^5 cell/ml (the final volume of 3 ml). After being incubated for 24 hrs, the medium was removed and fucosterol which was dissolved in the DMEM medium was treated at 5, 10, and 20 μM concentrations, respectively. After 24 hrs, the total RNA was collected by using a TRIzol reagent (Invitrogen, Carlsbad, Calif., USA) and reverse-transcribed and then a reverse transcription-polymerase chain reaction (RT-PCR) analysis was performed below. First, for cDNA synthesis, the RNA was reverse-transcribed by reverse transcriptase. The RT-PCR was performed by specific primers below and the result was illustrated in FIG. 9.

[3] = test system: B16F10 melanoma cells; assay: Melanin generation in α-MSH-stimulated B16F10 melanoma cells (absorbance 405 nm); conditions: 200 nM α-MSH, fucosterol 5, 10, 20 μM, 72 hrs, P<0.01, FIG. 2
Procedure: B16F10 melanoma cells were incubated in a DMEM medium including 10% fetal bovine serum and then added in a 6-well plate with 2.5×10^5 cell/mL (the final volume of 3 mL). After being incubated for 24 hrs, the medium was removed and fucosterol which was dissolved in the DMEM medium including 200 nM α-MSH was treated at 5, 10, and 20 μM concentrations, respectively. After 72 hrs, the incubated medium was removed from the 6-well plate and 0.25% trypsin-ethylenediaminetetraacetate (trypsin-EDTA) solution was treated to collect a cell pellet, and the cell pellet was transferred to a 1.5 mL tube and centrifuged for 10 min at 10,000 rpm to remove a supernatant. […] This solution was diluted with phosphate buffered saline (PBS) and then the melanin content in a sample treatment group was calculated by measuring absorbance at 405 nm by an ELISA reader (Versa max, Sunnyvale, Calif., USA). In this case, cells without the fucosterol were set to a control group and the melanin generation degree was measured in the control group and cells treated with the fucosterol. According to Equation 1 below, the melanin content compared with the control group was calculated and the result was illustrated in FIG. 2. Melanin content (%) compared with control group=absorbance of each test material/absorbance of control group×100 [Equation 1]

Q: What does the source list for `C/C=C(\CC[C@@H](C)[C@H]1CC[C@H]2[C@@H]3CC=C4C[C@@H](O)CC[C@]4(C)[C@H]3CC[C@]12C)C(C)C` [fucosterol]?
A: mRNA amount of MITF [1]: reduced; mRNA expression of loricrin [2]: increased; inhibitory effect on melanin generation [3]: very excellent inhibitory effect
